Laboratory results as given in patent publication US6355799B1, “Substituted benzene compounds, process for their preparation, and herbicidal and defoliant compositions containing them” (ISK Americas Incorporated, priority 1997, dated 2002).

Columns and labels:
Assay type in all cases: in vivo
[1] = tested on: redroot pigweed (Amaranthus retroflexus, AMARE); test: Pre-emerge test, greenhouse herbicide activity screening; conditions: pre-emerge, rated 14 days after application, 0 = no damage, 100 = complete death
Procedure, shortened: (§1)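 Plants grown in 10 cm pots of sandy loam mix received acetone-dissolved compounds through a moving flat-fan nozzle. Doses ranged from 15 to 1000 g ai/ha. Pre-emerge pots were seeded one day earlier, post-emerge pots 8–21 days earlier. Fourteen days on, each pot was graded 0–100 for damage.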

[2] = tested on: barnyardgrass (Echinochloa crus-galli, ECHCG); test: as above; conditions: pre-emerge, rated 14 days after application, 0 = no damage, 100 = complete death
Procedure, shortened: (§2)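 Visual ratings on a 0-100 scale (0 no damage, 100 all plants dead) were taken at 14 days after treatment. Rates of 15-1000 g ai/ha in acetone, 187 l/ha, were sprayed onto soil one day after planting (pre-emerge) or onto 2-3 leaf plants with 0.25% v/v surfactant (post-emerge).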

[3] = tested on: common ragweed (Ambrosia artemisizfolia L., AMBEL); test: as above; conditions: pre-emerge, rated 14 days after application, 0 = no damage, 100 = complete death
Procedure, shortened: as §2

[4] = tested on: green foxtail (Setaria viridis, SETVI); test: as above; conditions: pre-emerge, rated 14 days after application, 0 = no damage, 100 = complete death
Procedure, shortened: as §2

[5] = tested on: ivyleaf morningglory (Ipomoea hederacea, IPOHE); test: as above; conditions: pre-emerge, rated 14 days after application, 0 = no damage, 100 = complete death
Procedure, shortened: as §2

[6] = tested on: johnsongrass (Sorghum halepense, SORHA); test: as above; conditions: pre-emerge, rated 14 days after application, 0 = no damage, 100 = complete death
Procedure, shortened: as §2

[7] = tested on: lambsquarters (Chenopodium album, CHEAL); test: as above; conditions: pre-emerge, rated 14 days after application, 0 = no damage, 100 = complete death
Procedure, shortened: as §2

[8] = tested on: large crabgrass (Digitaria sanguinalis, DIGSA); test: as above; conditions: pre-emerge, rated 14 days after application, 0 = no damage, 100 = complete death
Procedure, shortened: as §2

[9] = tested on: sicklepod (Cassia obtusifolia, CASOB); test: as above; conditions: pre-emerge, rated 14 days after application, 0 = no damage, 100 = complete death
Procedure, shortened: as §2

[10] = tested on: velvetleaf (Abutilon theophrasti, ABUTH); test: as above; conditions: pre-emerge, rated 14 days after application, 0 = no damage, 100 = complete death
Procedure, shortened: as §2

[11] = tested on: field corn (Zea mays L., var. Dekalb 535, CORN); test: Pre-emerge test, crop safety; conditions: pre-emerge, rated 14 days after application, 0 = no damage, 100 = complete death
Procedure, shortened: as §1

[12] = tested on: upland rice (Oryza sp., var. Tebonnet, RICE); test: Pre-emerge test, crop safety; conditions: pre-emerge, rated 14 days after application, 0 = no damage, 100 = complete death
Procedure, shortened: as §1

[13] = tested on: barnyardgrass (Echinochloa crus-galli, ECHCG); test: Post-emerge test, greenhouse herbicide activity screening; conditions: phytotoxicity rating 0-100 (0 no damage, 100 complete death), 14 days after application
Procedure, shortened: (§3)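 Fourteen days after spraying, crop and weed injury was graded visually from 0, no effect, to 100, every plant dead. Test substances were dissolved in acetone and applied at 15–1000 g ai/ha with a flat-fan nozzle. Application was either pre-emergence, one day after sowing, or post-emergence at the 2–3 leaf stage.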

[14] = tested on: common ragweed (Ambrosia artemisizfolia L., AMBEL); test: as above; conditions: phytotoxicity rating 0-100 (0 no damage, 100 complete death), 14 days after application
Procedure, shortened: as §3

[15] = tested on: ivyleaf morningglory (Ipomoea hederacea, IPOHE); test: as above; conditions: phytotoxicity rating 0-100 (0 no damage, 100 complete death), 14 days after application
Procedure, shortened: as §3

[16] = tested on: johnsongrass (Sorghum halepense, SORHA); test: as above; conditions: phytotoxicity rating 0-100 (0 no damage, 100 complete death), 14 days after application
Procedure, shortened: as §3

[17] = tested on: lambsquarters (Chenopodium album, CHEAL); test: as above; conditions: phytotoxicity rating 0-100 (0 no damage, 100 complete death), 14 days after application
Procedure, shortened: as §3

[18] = tested on: large crabgrass (Digitaria sanguinalis, DIGSA); test: as above; conditions: phytotoxicity rating 0-100 (0 no damage, 100 complete death), 14 days after application
Procedure, shortened: as §3

[19] = tested on: redroot pigweed (Amaranthus retroflexus, AMARE); test: as above; conditions: phytotoxicity rating 0-100 (0 no damage, 100 complete death), 14 days after application
Procedure, shortened: as §3

[20] = tested on: sicklepod (Cassia obtusifolia, CASOB); test: as above; conditions: phytotoxicity rating 0-100 (0 no damage, 100 complete death), 14 days after application
Procedure, shortened: as §3

[21] = tested on: velvetleaf (Abutilon theophrasti, ABUTH); test: as above; conditions: phytotoxicity rating 0-100 (0 no damage, 100 complete death), 14 days after application
Procedure, shortened: as §3

[22] = tested on: field corn (Zea mays L., var. Dekalb 535, CORN); test: Post-emerge test, crop safety; conditions: phytotoxicity rating 0-100 (0 no damage, 100 complete death), 14 days after application
Procedure, shortened: as §2

[23] = tested on: upland rice (Oryza sp., var. Tebonnet, RICE); test: Post-emerge test, crop safety; conditions: phytotoxicity rating 0-100 (0 no damage, 100 complete death), 14 days after application
Procedure, shortened: as §2

CCc1ccc(C(=O)Nc2c(OC)c(Cl)cc(F)c2-n2c(=O)cc(C(F)(F)F)n(C)c2=O)cc1 [2-27]
70: Pre-emerge crop damage RICE (phytotoxicity rating, scale 0-100) ([12]; 63 g ai/ha) | Post-emerge Herbicidal Activity DIGSA ([18]; 250 g ai/ha)
20: Pre-emerge crop damage CORN (phytotoxicity rating, scale 0-100) ([11]; 63 g ai/ha) | Post-emerge Herbicidal Activity SORHA ([16]; 63 g ai/ha)
60: Pre-emerge Herbicidal Activity CASOB (phytotoxicity rating, scale 0-100) ([9]; 63 g ai/ha) | Post-emerge Herbicidal Activity AMBEL ([14]; 63 g ai/ha) | Post-emerge Herbicidal Activity RICE (crop damage) ([23]; 63 g ai/ha)
90: Pre-emerge crop damage CORN (phytotoxicity rating, scale 0-100) ([11]; 250 g ai/ha) | Pre-emerge crop damage RICE (phytotoxicity rating, scale 0-100) ([12]; 250 g ai/ha) | Post-emerge Herbicidal Activity AMBEL ([14]; 250 g ai/ha) | Post-emerge Herbicidal Activity IPOHE ([15]; 63 g ai/ha) | Post-emerge Herbicidal Activity CHEAL ([17]; 63 g ai/ha) | Post-emerge Herbicidal Activity CASOB ([20]; 250 g ai/ha)
30: Pre-emerge Herbicidal Activity SORHA (phytotoxicity rating, scale 0-100) ([6]; 63 g ai/ha)
100: Pre-emerge Herbicidal Activity AMARE (phytotoxicity rating, scale 0-100) ([1]; 63 g ai/ha) | Pre-emerge Herbicidal Activity AMARE (phytotoxicity rating, scale 0-100) ([1]; 250 g ai/ha) | Pre-emerge Herbicidal Activity ECHCG (phytotoxicity rating, scale 0-100) ([2]; 250 g ai/ha) | Pre-emerge Herbicidal Activity AMBEL (phytotoxicity rating, scale 0-100) ([3]; 63 g ai/ha) | Pre-emerge Herbicidal Activity AMBEL (phytotoxicity rating, scale 0-100) ([3]; 250 g ai/ha) | Pre-emerge Herbicidal Activity SETVI (phytotoxicity rating, scale 0-100) ([4]; 63 g ai/ha) | Pre-emerge Herbicidal Activity SETVI (phytotoxicity rating, scale 0-100) ([4]; 250 g ai/ha) | Pre-emerge Herbicidal Activity IPOHE (phytotoxicity rating, scale 0-100) ([5]; 250 g ai/ha) | Pre-emerge Herbicidal Activity CHEAL (phytotoxicity rating, scale 0-100) ([7]; 63 g ai/ha) | Pre-emerge Herbicidal Activity CHEAL (phytotoxicity rating, scale 0-100) ([7]; 250 g ai/ha) | Pre-emerge Herbicidal Activity DIGSA (phytotoxicity rating, scale 0-100) ([8]; 250 g ai/ha) | Pre-emerge Herbicidal Activity CASOB (phytotoxicity rating, scale 0-100) ([9]; 250 g ai/ha) | Pre-emerge Herbicidal Activity ABUTH (phytotoxicity rating, scale 0-100) ([10]; 63 g ai/ha) | Pre-emerge Herbicidal Activity ABUTH (phytotoxicity rating, scale 0-100) ([10]; 250 g ai/ha) | Post-emerge Herbicidal Activity IPOHE ([15]; 250 g ai/ha) | Post-emerge Herbicidal Activity CHEAL ([17]; 250 g ai/ha) | Post-emerge Herbicidal Activity AMARE ([19]; 63 g ai/ha) | Post-emerge Herbicidal Activity AMARE ([19]; 250 g ai/ha) | Post-emerge Herbicidal Activity ABUTH ([21]; 63 g ai/ha) | Post-emerge Herbicidal Activity ABUTH ([21]; 250 g ai/ha)
10: Post-emerge Herbicidal Activity DIGSA ([18]; 63 g ai/ha)
95: Pre-emerge Herbicidal Activity DIGSA (phytotoxicity rating, scale 0-100) ([8]; 63 g ai/ha) | Post-emerge Herbicidal Activity CORN (crop damage) ([22]; 250 g ai/ha) | Post-emerge Herbicidal Activity RICE (crop damage) ([23]; 250 g ai/ha)
50: Pre-emerge Herbicidal Activity ECHCG (phytotoxicity rating, scale 0-100) ([2]; 63 g ai/ha) | Post-emerge Herbicidal Activity CASOB ([20]; 63 g ai/ha) | Post-emerge Herbicidal Activity CORN (crop damage) ([22]; 63 g ai/ha)
80: Pre-emerge Herbicidal Activity IPOHE (phytotoxicity rating, scale 0-100) ([5]; 63 g ai/ha) | Pre-emerge Herbicidal Activity SORHA (phytotoxicity rating, scale 0-100) ([6]; 250 g ai/ha) | Post-emerge Herbicidal Activity ECHCG ([13]; 250 g ai/ha)
85: Post-emerge Herbicidal Activity SORHA ([16]; 250 g ai/ha)
0: Post-emerge Herbicidal Activity ECHCG ([13]; 63 g ai/ha)

COc1c(Cl)cc(F)c(-n2c(=O)cc(C(F)(F)F)n(C)c2=O)c1NC(=O)c1ccc(C(C)(C)C)cc1 [2-30]
20: Pre-emerge Herbicidal Activity SETVI (phytotoxicity rating, scale 0-100) ([4]; 250 g ai/ha) | Pre-emerge Herbicidal Activity ABUTH (phytotoxicity rating, scale 0-100) ([10]; 250 g ai/ha) | Post-emerge Herbicidal Activity IPOHE ([15]; 250 g ai/ha) | Post-emerge Herbicidal Activity AMARE ([19]; 250 g ai/ha)
30: Post-emerge Herbicidal Activity ABUTH ([21]; 63 g ai/ha)
10: Post-emerge Herbicidal Activity AMBEL ([14]; 250 g ai/ha)
50: Post-emerge Herbicidal Activity CHEAL ([17]; 250 g ai/ha)
70: Pre-emerge Herbicidal Activity CHEAL (phytotoxicity rating, scale 0-100) ([7]; 250 g ai/ha) | Post-emerge Herbicidal Activity ABUTH ([21]; 250 g ai/ha)
0: Pre-emerge Herbicidal Activity AMARE (phytotoxicity rating, scale 0-100) ([1]; 63 g ai/ha) | Pre-emerge Herbicidal Activity AMARE (phytotoxicity rating, scale 0-100) ([1]; 250 g ai/ha) | Pre-emerge Herbicidal Activity ECHCG (phytotoxicity rating, scale 0-100) ([2]; 63 g ai/ha) | Pre-emerge Herbicidal Activity ECHCG (phytotoxicity rating, scale 0-100) ([2]; 250 g ai/ha) | Pre-emerge Herbicidal Activity AMBEL (phytotoxicity rating, scale 0-100) ([3]; 63 g ai/ha) | Pre-emerge Herbicidal Activity AMBEL (phytotoxicity rating, scale 0-100) ([3]; 250 g ai/ha) | Pre-emerge Herbicidal Activity SETVI (phytotoxicity rating, scale 0-100) ([4]; 63 g ai/ha) | Pre-emerge Herbicidal Activity IPOHE (phytotoxicity rating, scale 0-100) ([5]; 63 g ai/ha) | Pre-emerge Herbicidal Activity IPOHE (phytotoxicity rating, scale 0-100) ([5]; 250 g ai/ha) | Pre-emerge Herbicidal Activity SORHA (phytotoxicity rating, scale 0-100) ([6]; 63 g ai/ha) | Pre-emerge Herbicidal Activity SORHA (phytotoxicity rating, scale 0-100) ([6]; 250 g ai/ha) | Pre-emerge Herbicidal Activity CHEAL (phytotoxicity rating, scale 0-100) ([7]; 63 g ai/ha) | Pre-emerge Herbicidal Activity DIGSA (phytotoxicity rating, scale 0-100) ([8]; 63 g ai/ha) | Pre-emerge Herbicidal Activity DIGSA (phytotoxicity rating, scale 0-100) ([8]; 250 g ai/ha) | Pre-emerge Herbicidal Activity CASOB (phytotoxicity rating, scale 0-100) ([9]; 63 g ai/ha) | Pre-emerge Herbicidal Activity CASOB (phytotoxicity rating, scale 0-100) ([9]; 250 g ai/ha) | Pre-emerge Herbicidal Activity ABUTH (phytotoxicity rating, scale 0-100) ([10]; 63 g ai/ha) | Pre-emerge crop damage CORN (phytotoxicity rating, scale 0-100) ([11]; 63 g ai/ha) | Pre-emerge crop damage CORN (phytotoxicity rating, scale 0-100) ([11]; 250 g ai/ha) | Pre-emerge crop damage RICE (phytotoxicity rating, scale 0-100) ([12]; 63 g ai/ha) | Pre-emerge crop damage RICE (phytotoxicity rating, scale 0-100) ([12]; 250 g ai/ha) | Post-emerge Herbicidal Activity ECHCG ([13]; 63 g ai/ha) | Post-emerge Herbicidal Activity ECHCG ([13]; 250 g ai/ha) | Post-emerge Herbicidal Activity AMBEL ([14]; 63 g ai/ha) | Post-emerge Herbicidal Activity IPOHE ([15]; 63 g ai/ha) | Post-emerge Herbicidal Activity SORHA ([16]; 63 g ai/ha) | Post-emerge Herbicidal Activity SORHA ([16]; 250 g ai/ha) | Post-emerge Herbicidal Activity CHEAL ([17]; 63 g ai/ha) | Post-emerge Herbicidal Activity DIGSA ([18]; 63 g ai/ha) | Post-emerge Herbicidal Activity DIGSA ([18]; 250 g ai/ha) | Post-emerge Herbicidal Activity AMARE ([19]; 63 g ai/ha) | Post-emerge Herbicidal Activity CASOB ([20]; 63 g ai/ha) | Post-emerge Herbicidal Activity CASOB ([20]; 250 g ai/ha) | Post-emerge Herbicidal Activity CORN (crop damage) ([22]; 63 g ai/ha) | Post-emerge Herbicidal Activity CORN (crop damage) ([22]; 250 g ai/ha) | Post-emerge Herbicidal Activity RICE (crop damage) ([23]; 63 g ai/ha) | Post-emerge Herbicidal Activity RICE (crop damage) ([23]; 250 g ai/ha)
